Experimental data reported in patent publication US9078929B2, “ε-Polylysine conjugates and the use thereof” (Merck Patent GmbH, priority 2009, dated 2015).

Assays:
[1] = test system: proteases; settings: in contrast to α-polylysine; cited from earlier work
[2] = Comparative planar scintigraphs, mouse model; type: in vivo
From the text: (§1) The uptake of ^99mTc-MAG3 and of ^99mTc-DMSA are compared with the uptake of (ε-L-polylysine-DOTA, loaded with ^111In) in the rat and mouse model in planar scintigraphs.

[3] = Comparative planar scintigraphs, rat model; type: in vivo
From the text: as §1

Compound | enzymatic degradation by proteases [1] | kidney to background ratio compared with ε-L-polylysine-DOTA loaded with 111In [2] | kidney to background ratio compared with ε-L-polylysine-DOTA loaded with 111In [3]
ε-polylysine | not enzymatically degraded | – | –
O=C(O)CNC(=O)CNC(=O)CNC(=O)CS [^99mTc-MAG3, mercaptoacetyltriglycine, metal not drawn] | – | worse kidney to background ratio | worse kidney to background ratio
